As a reminder, the inhibition is the drop in the measured response relative to a control, in per cent.

Holding throughout (test): Large panel kinase profiling
Type in all cases: biochemical
Common to all, as to settings: 1 μM test article, 1 mM ATP

Test [1] addresses PIM1 (Homo sapiens, UniProt P11309). The gist of the method: (§1)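 Profiling across the panel relied on the PhosphoSens CSox-Sensor format. A compound concentration of 1 μM and an ATP level of 1 mM were used throughout.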
Test [2] has as its target LIMK1 (Homo sapiens, UniProt P53667). The essentials:
as §1

For test [3], the target named is PRKACA (Homo sapiens, UniProt P17612). The essentials:
as §1

Test [4] addresses AKT3 (Homo sapiens, UniProt Q9Y243). The essentials:
as §1

For test [5], the target named is T1, MAPK15/ERK7 (Homo sapiens, UniProt Q8TD08).
T1 construct: AssayQuant Technologies, Inc. (service provider)
T1 sequence (Q8TD08 1-544): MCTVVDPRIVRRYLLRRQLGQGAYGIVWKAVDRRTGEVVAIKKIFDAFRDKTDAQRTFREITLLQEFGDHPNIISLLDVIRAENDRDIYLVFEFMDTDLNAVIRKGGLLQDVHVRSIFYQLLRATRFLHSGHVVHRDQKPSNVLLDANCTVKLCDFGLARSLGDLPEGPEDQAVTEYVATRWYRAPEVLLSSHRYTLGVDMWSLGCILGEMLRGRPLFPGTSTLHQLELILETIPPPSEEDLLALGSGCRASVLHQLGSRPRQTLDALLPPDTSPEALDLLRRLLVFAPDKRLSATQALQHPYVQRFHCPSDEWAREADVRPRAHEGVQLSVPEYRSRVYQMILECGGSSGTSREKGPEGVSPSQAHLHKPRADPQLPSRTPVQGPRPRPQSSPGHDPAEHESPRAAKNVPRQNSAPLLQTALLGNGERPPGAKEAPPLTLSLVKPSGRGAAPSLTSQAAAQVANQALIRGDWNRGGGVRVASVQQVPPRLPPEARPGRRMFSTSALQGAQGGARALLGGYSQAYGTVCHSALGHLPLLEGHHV
The gist of the method:
as §1

The target of test [6] is T2, MUSK (Homo sapiens, UniProt O15146).
T2 construct: AssayQuant Technologies, Inc. (assay service)
T2 sequence (O15146 24-869): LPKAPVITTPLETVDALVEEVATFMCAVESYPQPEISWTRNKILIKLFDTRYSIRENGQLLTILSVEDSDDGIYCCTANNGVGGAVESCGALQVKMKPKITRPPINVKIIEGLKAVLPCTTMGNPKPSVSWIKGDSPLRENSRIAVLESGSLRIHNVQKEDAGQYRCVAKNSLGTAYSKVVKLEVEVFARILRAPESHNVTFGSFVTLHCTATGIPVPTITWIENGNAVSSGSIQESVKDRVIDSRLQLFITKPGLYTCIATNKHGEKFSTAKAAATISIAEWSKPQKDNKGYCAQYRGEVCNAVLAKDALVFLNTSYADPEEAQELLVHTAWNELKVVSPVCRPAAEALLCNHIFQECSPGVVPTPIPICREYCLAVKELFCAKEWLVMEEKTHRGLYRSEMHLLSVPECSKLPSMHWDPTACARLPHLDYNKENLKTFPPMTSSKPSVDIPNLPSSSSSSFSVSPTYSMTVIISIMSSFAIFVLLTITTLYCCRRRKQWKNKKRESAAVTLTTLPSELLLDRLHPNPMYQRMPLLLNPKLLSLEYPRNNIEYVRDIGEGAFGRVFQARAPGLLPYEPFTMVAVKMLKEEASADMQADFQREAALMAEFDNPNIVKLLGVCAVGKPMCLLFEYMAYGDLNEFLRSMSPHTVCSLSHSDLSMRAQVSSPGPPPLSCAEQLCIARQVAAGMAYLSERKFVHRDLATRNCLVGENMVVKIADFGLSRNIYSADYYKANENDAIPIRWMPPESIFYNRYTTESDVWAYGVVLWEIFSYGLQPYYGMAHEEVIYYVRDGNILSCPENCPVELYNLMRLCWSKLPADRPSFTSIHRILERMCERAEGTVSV
The gist of the method: as §1

For test [7], the target named is T3, MAPK7/ERK5 (Homo sapiens, UniProt Q13164).
T3 construct: AssayQuant Technologies, Inc. (service provider)
T3 sequence (Q13164 whole entry): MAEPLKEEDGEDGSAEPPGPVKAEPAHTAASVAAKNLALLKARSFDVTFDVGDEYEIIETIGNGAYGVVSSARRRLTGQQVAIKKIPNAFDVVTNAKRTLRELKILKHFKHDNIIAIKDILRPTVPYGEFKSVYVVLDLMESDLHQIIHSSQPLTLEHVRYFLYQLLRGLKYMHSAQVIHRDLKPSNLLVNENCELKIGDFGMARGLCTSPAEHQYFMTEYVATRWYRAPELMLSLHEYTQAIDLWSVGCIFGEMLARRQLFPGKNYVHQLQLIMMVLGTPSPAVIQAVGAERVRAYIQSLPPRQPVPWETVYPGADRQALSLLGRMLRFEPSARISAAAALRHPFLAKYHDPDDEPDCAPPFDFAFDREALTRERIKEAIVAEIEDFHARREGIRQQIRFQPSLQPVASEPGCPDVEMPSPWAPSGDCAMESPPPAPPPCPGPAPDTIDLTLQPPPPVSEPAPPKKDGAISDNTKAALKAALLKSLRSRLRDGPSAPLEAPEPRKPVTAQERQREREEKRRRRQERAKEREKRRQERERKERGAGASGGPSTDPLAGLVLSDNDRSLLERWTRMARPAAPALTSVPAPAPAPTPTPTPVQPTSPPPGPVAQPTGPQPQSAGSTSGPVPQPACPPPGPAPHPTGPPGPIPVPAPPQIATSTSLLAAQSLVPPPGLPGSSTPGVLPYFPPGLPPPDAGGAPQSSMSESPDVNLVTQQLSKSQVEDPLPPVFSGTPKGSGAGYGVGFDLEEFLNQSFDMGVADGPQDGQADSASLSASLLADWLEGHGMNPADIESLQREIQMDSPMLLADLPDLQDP
The gist of the method: as §1

Test [8] has as its target T4, CSNK2A2/CK2A2 (Homo sapiens, UniProt P19784).
T4 construct: AssayQuant Technologies, Inc. (service laboratory)
The gist of the method:
as §1

In test [9] the target is PRKAA1/AMPK121 (Homo sapiens, UniProt Q13131). The gist of the method:
as §1

Test [10] concerns the target FGFR2 (Homo sapiens, UniProt P21802). The essentials: as §1
The target in test [11] is T5, HCK (Homo sapiens, UniProt P08631).
T5 construct: AssayQuant Technologies, Inc. (service provider)
T5 sequence (P08631 whole entry, species assumed): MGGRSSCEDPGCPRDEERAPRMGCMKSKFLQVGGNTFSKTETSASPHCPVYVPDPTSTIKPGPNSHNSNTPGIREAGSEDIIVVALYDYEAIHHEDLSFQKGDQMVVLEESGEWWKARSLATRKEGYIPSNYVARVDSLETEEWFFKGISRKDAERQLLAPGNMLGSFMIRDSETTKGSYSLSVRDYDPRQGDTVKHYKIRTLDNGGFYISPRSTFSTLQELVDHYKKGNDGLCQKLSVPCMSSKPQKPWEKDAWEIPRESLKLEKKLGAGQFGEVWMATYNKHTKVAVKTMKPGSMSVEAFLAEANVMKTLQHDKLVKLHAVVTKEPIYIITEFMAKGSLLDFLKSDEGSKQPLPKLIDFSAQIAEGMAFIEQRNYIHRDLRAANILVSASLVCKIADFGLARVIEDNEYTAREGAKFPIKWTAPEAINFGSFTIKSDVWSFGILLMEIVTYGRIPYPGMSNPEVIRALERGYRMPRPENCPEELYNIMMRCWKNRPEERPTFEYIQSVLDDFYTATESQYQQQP
The essentials: as §1

In test [12] the target is PRKCH/PKCH (Homo sapiens, UniProt P24723). The essentials:
as §1

T4 sequence (P19784 whole entry): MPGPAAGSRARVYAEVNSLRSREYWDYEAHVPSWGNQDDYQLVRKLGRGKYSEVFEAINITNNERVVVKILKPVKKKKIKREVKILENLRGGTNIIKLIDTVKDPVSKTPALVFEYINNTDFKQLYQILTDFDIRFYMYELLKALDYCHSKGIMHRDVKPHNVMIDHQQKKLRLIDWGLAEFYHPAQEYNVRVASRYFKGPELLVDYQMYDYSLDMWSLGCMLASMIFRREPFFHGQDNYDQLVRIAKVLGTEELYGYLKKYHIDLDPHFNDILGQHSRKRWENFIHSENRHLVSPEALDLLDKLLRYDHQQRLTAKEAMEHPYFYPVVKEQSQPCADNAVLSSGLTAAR
Sequence of PRKCH/PKCH (P24723 whole entry): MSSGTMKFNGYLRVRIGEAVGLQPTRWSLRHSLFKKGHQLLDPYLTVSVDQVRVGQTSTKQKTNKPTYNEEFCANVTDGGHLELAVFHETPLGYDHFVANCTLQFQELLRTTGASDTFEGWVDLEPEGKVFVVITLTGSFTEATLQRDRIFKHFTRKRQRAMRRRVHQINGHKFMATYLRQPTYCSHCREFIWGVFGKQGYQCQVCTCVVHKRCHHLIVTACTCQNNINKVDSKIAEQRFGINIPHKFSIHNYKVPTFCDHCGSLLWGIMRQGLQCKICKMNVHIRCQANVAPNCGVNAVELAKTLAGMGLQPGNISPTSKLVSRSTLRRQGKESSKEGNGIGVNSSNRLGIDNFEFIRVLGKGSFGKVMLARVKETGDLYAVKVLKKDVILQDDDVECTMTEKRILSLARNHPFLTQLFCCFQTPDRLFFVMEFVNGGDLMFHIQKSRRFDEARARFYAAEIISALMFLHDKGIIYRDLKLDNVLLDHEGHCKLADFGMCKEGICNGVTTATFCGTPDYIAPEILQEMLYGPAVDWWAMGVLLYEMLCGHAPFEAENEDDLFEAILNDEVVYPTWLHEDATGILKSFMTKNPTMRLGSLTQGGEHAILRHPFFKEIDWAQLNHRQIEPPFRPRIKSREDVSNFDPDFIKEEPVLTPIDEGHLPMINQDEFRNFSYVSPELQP
Sequence of PIM1 (P11309 whole entry, species assumed): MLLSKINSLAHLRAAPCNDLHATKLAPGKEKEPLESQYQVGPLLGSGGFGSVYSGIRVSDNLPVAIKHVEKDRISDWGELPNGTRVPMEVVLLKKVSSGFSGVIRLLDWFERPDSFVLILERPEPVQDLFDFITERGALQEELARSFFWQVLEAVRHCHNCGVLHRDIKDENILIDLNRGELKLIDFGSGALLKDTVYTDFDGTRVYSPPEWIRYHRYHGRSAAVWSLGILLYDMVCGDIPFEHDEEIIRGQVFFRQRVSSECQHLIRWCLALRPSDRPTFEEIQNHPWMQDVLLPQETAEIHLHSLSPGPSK
Sequence of LIMK1 (P53667 whole entry, species assumed): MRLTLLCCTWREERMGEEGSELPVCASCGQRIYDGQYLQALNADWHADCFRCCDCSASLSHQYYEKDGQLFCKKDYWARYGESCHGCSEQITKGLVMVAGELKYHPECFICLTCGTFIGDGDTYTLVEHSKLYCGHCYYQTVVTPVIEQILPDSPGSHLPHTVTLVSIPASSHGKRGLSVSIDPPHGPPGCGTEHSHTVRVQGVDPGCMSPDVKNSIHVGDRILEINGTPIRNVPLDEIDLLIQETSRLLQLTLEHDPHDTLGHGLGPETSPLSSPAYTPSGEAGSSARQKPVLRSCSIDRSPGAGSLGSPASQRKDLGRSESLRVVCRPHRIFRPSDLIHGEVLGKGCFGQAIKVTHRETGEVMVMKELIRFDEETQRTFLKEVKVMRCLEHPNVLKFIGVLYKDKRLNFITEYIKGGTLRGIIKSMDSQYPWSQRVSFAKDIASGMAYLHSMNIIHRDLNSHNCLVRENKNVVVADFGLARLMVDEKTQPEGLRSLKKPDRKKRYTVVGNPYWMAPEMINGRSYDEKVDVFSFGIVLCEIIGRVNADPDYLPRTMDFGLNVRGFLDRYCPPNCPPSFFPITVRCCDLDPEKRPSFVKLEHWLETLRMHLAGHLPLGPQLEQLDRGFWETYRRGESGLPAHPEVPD
Sequence of FGFR2 (P21802 22-821, species assumed): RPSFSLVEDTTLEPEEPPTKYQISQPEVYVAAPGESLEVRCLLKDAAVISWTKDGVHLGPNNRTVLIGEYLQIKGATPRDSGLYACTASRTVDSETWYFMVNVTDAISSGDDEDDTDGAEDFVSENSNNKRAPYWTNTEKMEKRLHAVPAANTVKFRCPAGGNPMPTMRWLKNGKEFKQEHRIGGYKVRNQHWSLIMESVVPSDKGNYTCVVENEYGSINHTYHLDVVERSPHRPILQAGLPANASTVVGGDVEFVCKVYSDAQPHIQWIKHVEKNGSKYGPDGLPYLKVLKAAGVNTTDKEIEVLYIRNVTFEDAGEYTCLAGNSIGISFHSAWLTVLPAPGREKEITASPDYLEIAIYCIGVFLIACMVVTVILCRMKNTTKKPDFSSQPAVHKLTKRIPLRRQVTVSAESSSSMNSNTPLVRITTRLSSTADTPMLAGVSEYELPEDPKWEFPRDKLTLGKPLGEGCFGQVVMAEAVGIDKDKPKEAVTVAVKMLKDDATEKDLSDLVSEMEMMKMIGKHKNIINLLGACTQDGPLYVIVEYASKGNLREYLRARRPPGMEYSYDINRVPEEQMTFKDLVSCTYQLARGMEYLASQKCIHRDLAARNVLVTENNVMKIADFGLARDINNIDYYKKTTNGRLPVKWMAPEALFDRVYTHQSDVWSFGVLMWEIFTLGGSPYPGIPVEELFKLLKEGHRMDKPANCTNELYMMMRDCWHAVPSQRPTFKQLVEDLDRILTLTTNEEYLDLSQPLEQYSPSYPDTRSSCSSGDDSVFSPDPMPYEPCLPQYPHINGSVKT
Sequence of AKT3 (Q9Y243 whole entry): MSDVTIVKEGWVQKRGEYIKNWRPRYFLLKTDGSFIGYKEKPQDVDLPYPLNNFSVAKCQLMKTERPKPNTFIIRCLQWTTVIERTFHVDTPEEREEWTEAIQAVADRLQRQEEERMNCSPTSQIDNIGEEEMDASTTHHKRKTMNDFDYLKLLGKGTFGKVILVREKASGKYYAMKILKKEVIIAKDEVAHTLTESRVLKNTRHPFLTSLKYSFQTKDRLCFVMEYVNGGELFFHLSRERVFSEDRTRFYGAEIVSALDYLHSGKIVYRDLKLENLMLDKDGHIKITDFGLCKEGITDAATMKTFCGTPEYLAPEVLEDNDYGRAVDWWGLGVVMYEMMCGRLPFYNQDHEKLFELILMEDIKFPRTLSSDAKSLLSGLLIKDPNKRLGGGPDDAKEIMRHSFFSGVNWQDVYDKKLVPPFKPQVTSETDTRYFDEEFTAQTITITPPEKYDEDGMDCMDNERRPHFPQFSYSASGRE

Consider `C=CC(=O)N1CCCC(c2c(F)cc(C(N)=O)c3[nH]c4c(c23)CCCCC4)C1` (single isomer, unassigned) [Compound 5-6], for which the inhibition at 1 µM is 7% in test [1]; -7.2% in test [2]; 11.4% in test [3]; -14.4% in test [4]; -3.4% in test [5]; 10.9% in test [6]. For the same molecule, the inhibition at 1 µM in [7] was -0.7%; in test [8] it was 11.4%; in [9], -7.9%; in test [10], 17.7%; in test [11], 6.8%; in [12] it was -3.6%.

Consider `C=CC(=O)N1CCC[C@@H](c2c(F)cc(C(N)=O)c3[nH]c4c(c23)CC2(CC4)CC2)C1` [Compound 6-2, (S)-5-(1-acryloylpiperidin-3-yl)-6-fluoro-1,2,4,9-tetrahydrospiro[carbazole-3,1′-cyclopropane]-8-carboxamide], for which the inhibition at 1 µM in test [1] was -43%; in [2], -14.7%; in test [3], 12.2%; in [4] it was -16.3%; in [5], 15.3%; in test [6], -3.1%. The inhibition at 1 µM in test [7] is 9.4%; in test [8], -141%; in test [9], 31.3%; in test [10] it was -15.3%; in test [11], 2.8%; in test [12], 5.3%.

With `C=CC(=O)N1CCC[C@@H](c2c(F)cc(C(N)=O)c3[nH]c4c(c23)CCC4)C1` [Compound 10-2, (S)-8-(1-acryloylpiperidin-3-yl)-7-fluoro-1,2,3,4-tetrahydrocyclo-penta[b]indole-5-carboxamide], the inhibition at 1 µM was -7.1% in [1]; -10.7% in test [2]; 1% in test [3]; -19.4% in test [4]; -2% in test [5]; 3% in test [6]. Moreover, the inhibition at 1 µM is -4.3% in test [7]; -144% in test [8]; 34.2% in [9]; -3.5% in [10]; -5.8% in test [11]; -7.9% in test [12].

The values are drawn from patent US20220009920A1 (GB005, Inc., priority 2020, published 2022).
